The structures appear in SMILES notation. A value given as a limit tells only on which side of the number the result lay.

As usually defined, the IC50 is the concentration at which inhibition is half-maximal.

The test system of the first assay is KM12-luc cells. Nature of the assay: Cell proliferation and growth inhibition assay (CCK-8) in KM12-luc. Type of assay: cell-based. Conditions: KM12-Luc, 72 h, KM12-luc cells, treated with test compounds for 72 hrs, CCK-8 viability; read-out: NTRK IC50 in KM12-luc. The essentials:
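Cells were grown at 37 °C, 5% CO2 with 10% FBS: MV-4-11 in IMDM, H1975 in RPMI 1640, KM12-luc in DMEM. Viability was read by CCK-8 (1-4 hrs reagent incubation, absorbance at OD450). IC50 came from a non-linear sigmoidal dose-response fit.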
As to `CC(=O)Nc1cc(Nc2ncc(C(F)(F)F)c(-c3c[nH]c4cc(F)ccc34)n2)ccc1N(C)CCN(C)C` [Compound 328a, N-(2-((2-(dimethylamino)ethyl)(methyl)amino)-5-((4-(6-fluoro-1H-indol-3-yl)-5-(trifluoromethyl)pyrimidin-2-yl)amino)phenyl)acetamide], the IC50 stood at 34.1 nM.

With `COc1cccc2c(-c3nc(Nc4ccc5c(c4)nc(C)n5CCN(C)C)ncc3C(F)(F)F)cn(C)c12` [Compound 387, 1-(2-(dimethylamino)ethyl)-N-(4-(7-methoxy-1-methyl-1H-indol-3-yl)-5-(trifluoromethyl)pyrimidin-2-yl)-2-methyl-1H-benzo[d]imidazol-5-amine], the IC50 is 114 nM.

In the case of `COc1cnc(Nc2ccc(N3CC[C@@H](N(C)C)C3)c(NC(C)=O)c2)nc1-c1c[nH]c2c(F)cccc12` [Compound R-280, (R)—N-(2-(3-(dimethylamino)pyrrolidin-1-yl)-5-((4-(7-fluoro-1H-indol-3-yl)-5-methoxypyrimidin-2-yl)amino)phenyl)acetamide], the IC50 is 15.6 nM.

For the molecule `Cc1ccc2[nH]cc(-c3nc(Nc4ccc(N(C)CCN(C)C)c(N(C)C)c4)nc4[nH]ccc34)c2c1` [Compound 239, N^1-(2-(dimethylamino)ethyl)-N^1,N^2,N^2-trimethyl-N^4-(4-(5-methyl-1H-indol-3-yl)-7H-pyrrolo[2,3-d]pyrimidin-2-yl)benzene-1,2,4-triamine], the IC50 was 518 nM.

Regarding `COc1cnc(Nc2ccc(OCCN(C)C)c(NC(C)=O)c2)nc1-c1c[nH]c2c(OC)cccc12` [Compound 287, N-(2-(2-(dimethylamino)ethoxy)-5-((5-methoxy-4-(7-methoxy-1H-indol-3-yl)pyrimidin-2-yl)amino)phenyl)acetamide], the IC50 amounted to 21.9 nM.

On to `COCCCN(C)c1cc(N2CCN(C)CC2)ccc1C(=O)Nc1c[nH]c2ccc(Nc3cc(F)cc(F)c3)cc12` [Compound 501, N-(5-((3,5-difluorophenyl)amino)-1H-indol-3-yl)-2-((3-methoxypropyl)(methyl)amino)-4-(4-methylpiperazin-1-yl)benzamide], for which the IC50 is above 1000 nM.

As for `COc1c(N)nc(Nc2ccc(N(C)CCN(C)C)c(N)c2)nc1-c1cn(C)c2ccccc12` [Compound 294, N^4-(4-amino-5-methoxy-6-(1-methyl-1H-indol-3-yl)pyrimidin-2-yl)-N^1-(2-(dimethylamino)ethyl)-N^1-methylbenzene-1,2,4-triamine], the half-maximal inhibitory concentration (IC50) was found to be 167 nM.

As for `CCN(CCN(C)C)c1ccc(Nc2ncc(Cl)c(-c3cn(C)c4ccccc34)n2)cc1NC(C)=O` [Compound 397, N-(5-((5-chloro-4-(1-methyl-1H-indol-3-yl)pyrimidin-2-yl)amino)-2-((2-(dimethylamino)ethyl)(ethyl)amino)phenyl)acetamide], the IC50 is 180 nM.

As for `CN(C)[C@H]1CCN(c2ccc(Nc3ncc(C(F)(F)F)c(-c4c[nH]c5c(F)cccc45)n3)cc2N)C1` [Compound S-345, (S)-4-(3-(dimethylamino)pyrrolidin-1-yl)-N^1-(4-(7-fluoro-1H-indol-3-yl)-5-(trifluoromethyl)pyrimidin-2-yl)benzene-1,3-diamine], the IC50 turned out to be 8.2 nM.

As to `CCC(=O)Nc1cccc(Nc2ncc(Cl)c(Nc3ccc(C4CCCNC4)cc3OC)n2)c1` (stereo not drawn) [Compound 164, N-(3-((5-chloro-4-((2-methoxy-4-(piperidin-3-yl)phenyl)amino)pyrimidin-2-yl)amino)phenyl)propionamide], the IC50 was found to be 50.5 nM.

Consider `CCC(=O)Nc1cc(Nc2ncc(C(F)(F)F)c(-c3c[nH]c4cc(F)ccc34)n2)ccc1N(CC)CCN(C)C` [Compound 330a, N-(2-((2-(dimethylamino)ethyl)(ethyl)amino)-5-((4-(6-fluoro-1H-indol-3-yl)-5-(trifluoromethyl)pyrimidin-2-yl)amino)phenyl)propionamide], for which the IC50 was 292 nM.

Regarding `CCN(CCN(C)C)c1ccc(Nc2nc(-c3cn(C)c4ccccc34)c3cc[nH]c3n2)cc1F` [Compound 208, N^1-(2-(dimethylamino)ethyl)-N^1-ethyl-2-fluoro-N^4-(4-(1-methyl-1H-indol-3-yl)-7H-pyrrolo[2,3-d]pyrimidin-2-yl)benzene-1,4-diamine], the IC50 is 381 nM.

On to `CCN(CCN(C)C)c1c(F)cc(Nc2nc3c(c(-c4cn(C)c5ccccc45)n2)COCC3)cc1NC(C)=O` [Compound 257d, N-(2-((2-(dimethylamino)ethyl)(ethyl)amino)-3-fluoro-5-((4-(1-methyl-1H-indol-3-yl)-7,8-dihydro-5H-pyrano[4,3-d]pyrimidin-2-yl)amino)phenyl)acetamide], for which the IC50 was above 10000 nM.

For `CCN(CCN(C)C)c1ccc(Nc2ncc(C(F)(F)F)c(-c3c[nH]c4cc(F)ccc34)n2)cc1NC(C)=O` [Compound 331a, N-(2-((2-(dimethylamino)ethyl)(ethyl)amino)-5-((4-(6-fluoro-1H-indol-3-yl)-5-(trifluoromethyl)pyrimidin-2-yl)amino)phenyl)acetamide], the IC50 was 32.3 nM.

As for `CCN(CCN(C)C)c1ccc(Nc2ncc(C(F)(F)F)c(-c3c[nH]c4ccccc34)n2)cc1N` [Compound 301, N^4-(4-(1H-indol-3-yl)-5-(trifluoromethyl)pyrimidin-2-yl)-N^1-(2-(dimethylamino)ethyl)-N-ethylbenzene-1,2,4-triamine], the IC50 was determined as 75.4 nM.

For `CN(C)CCN(C)c1ccc(Nc2nc(-c3cn(C)c4ccccc34)c3cc[nH]c3n2)cc1N` [Compound 204, N^1-(2-(dimethylamino)ethyl)-N^1-methyl-N^4-(4-(1-methyl-1H-indol-3-yl)-7H-pyrrolo[2,3-d]pyrimidin-2-yl)benzene-1,2,4-triamine], the IC50 was determined as 45.8 nM.

On to `CC(=O)Nc1cc(Nc2nc(-c3cn(C)c4ccccc34)c3occc3n2)cc(F)c1N(C)CCN(C)C` [Compound 256b, N-(2-((2-(dimethylamino)ethyl) (methyl)amino)-3-fluoro-5-((4-(1-methyl-1H-indol-3-yl)furo[3,2-d]pyrimidin-2-yl)amino)phenyl) acetamide], for which the 50% inhibitory concentration (IC50) came to 748 nM.

In the case of `CCN(CCN(C)C)c1c(F)cc(Nc2nc(OC)c(OC)c(-c3cn(C)c4ccccc34)n2)cc1NC(C)=O` [Compound 291d, N-(5-((4,5-dimethoxy-6-(1-methyl-1H-indol-3-yl)pyrimidin-2-yl)amino)-2-((2-(dimethylamino)ethyl) (ethyl)amino)-3-fluorophenyl)acetamide], the IC50 is 3270 nM.

Regarding `CC(=O)Nc1cc(Nc2ncc(C(F)(F)F)c(-c3cn(C)c4cc(F)c(F)cc34)n2)ccc1N(C)CCN(C)C` [Compound 355, N-(5-((4-(5,6-difluoro-1-methyl-1H-indol-3-yl)-5-(trifluoromethyl)pyrimidin-2-yl)amino)-2-((2-(dimethylamino)ethyl)(methyl)amino)phenyl)acetamide], the IC50 is 70.4 nM.

Consider `CC(=O)Nc1cc(Nc2ncc(C(F)(F)F)c(-c3c[nH]c4c(F)cccc34)n2)ccc1N(CCN(C)C)C(C)=O` [Compound 341, N-(2-acetamido-4-((4-(7-fluoro-1H-indol-3-yl)-5-(trifluoromethyl)pyrimidin-2-yl)amino)phenyl)-N-(2-(dimethylamino)ethyl)acetamide], for which the IC50 was determined as 248 nM.

For the molecule `CC(=O)Nc1cc(Nc2ncc(Cl)c(-c3cn(C)c4c(F)cccc34)n2)ccc1N1CC[C@@H](N(C)C)C1` [Compound R-415, (R)—N-(5-((5-chloro-4-(7-fluoro-1-methyl-1H-indol-3-yl)pyrimidin-2-yl)amino)-2-(3-(dimethylamino)pyrrolidin-1-yl)phenyl)acetamide], the concentration for half-maximal inhibition (IC50) was 66.7 nM.

As for `CC(=O)Nc1cc(Nc2ncc(C(F)(F)F)c(-c3cn(C)c4c(F)cccc34)n2)ccc1N1CC[C@@H](N(C)C)C1` [Compound R-353, (R)—N-(2-(3-(dimethylamino)pyrrolidin-1-yl)-5-((4-(7-fluoro-1-methyl-1H-indol-3-yl)-5-(trifluoromethyl)pyrimidin-2-yl)amino)phenyl)acetamide], the IC50 was 64.3 nM.

Take `CC(=O)Nc1cc(Nc2ncc(Cl)c(-c3c[nH]c4ccccc34)n2)ccc1NC(=O)CCN(C)C` [Compound 394a, N-(2-acetamido-4-((5-chloro-4-(1H-indol-3-yl)pyrimidin-2-yl)amino)phenyl)-3-(dimethylamino)propanamide]: the IC50 turned out to be 29.1 nM.

Still in this assay, the particulars now being: KM12-Luc, 72 h, read-out: NTRK IC50 in KM12-luc.
As for `CCNc1cc(Nc2nc(-c3cn(C)c4ccc(F)cc34)c3cc[nH]c3n2)ccc1N(CC)CCN(C)C` [Compound 227d, N^1-(2-(dimethylamino)ethyl)-N^1,N^2-diethyl-N^4-(4-(5-fluoro-1-methyl-1H-indol-3-yl)-7H-pyrrolo[2,3-d]pyrimidin-2-yl)benzene-1,2,4-triamine], the IC50 was 2010 nM.

`CCN(CCN(C)C)c1ccc(Nc2nc(-c3cn(C)c4ccccc34)c3cc[nH]c3n2)cc1NC(C)=O` [Compound 212c, N-(2-((2-(dimethylamino)ethyl)(ethyl)amino)-5-((4-(1-methyl-1H-indol-3-yl)-7H-pyrrolo[2,3-d]pyrimidin-2-yl)amino)phenyl)acetamide]: the IC50 was found to be 43.2 nM.

The assay is the same for the next values; noted with them: KM12-luc cells, treated with test compounds for 72 hrs, CCK-8 viability; read-out: NTRK IC50 in KM12-luc.
Take `CC(=O)Nc1cccc(Oc2nc(Nc3ccc4c(c3)[N+](C)(C)CCN4C)nc3[nH]ccc23)c1` [Compound 181b, 7-((4-(3-acetamidophenoxy)-7H-pyrrolo[2,3-d]pyrimidin-2-yl)amino)-1,1,4-trimethyl-1,2,3,4-tetrahydroquinoxalin-1-ium]: the IC50 was above 10000 nM.

Consider `CC(=O)Nc1cc(Nc2nc(-c3cn(C)nc3C)c3cc[nH]c3n2)ccc1N(C)CCN(C)C` [Compound 255b, N-(5-(4-(1,3-dimethyl-1H-pyrazol-4-yl)-7H-pyrrolo[2,3-d]pyrimidin-2-ylamino)-2-((2-(dimethylamino)ethyl)(methyl)amino)phenyl)acetamide], for which the IC50 was above 10000 nM.

For the origin of these results see patent publication US20250136576A1, “Heterocyclic Compounds and Uses Thereof” (ACEA Therapeutics, Inc., priority 2021, published 2025).
